Reference: US20180311340A1, “NEW ADJUVANT AND VACCINE COMPOSITION CONTAINING THE SAME” (priority 2015, published 2018)
Entries after “also recorded” stand apart in the source; their conditions may differ.

Tests used:
[1] = test system: Influenza A/Singapore/6/86(H1N1); assay: Immunogenicity study of influenza virosome with flavonoids; humoral response by ELISA; format: in vivo; conditions: Balb/c mice, subcutaneous, 1 μg Influenza A virosome with 1 or 10 μg adjuvant, day 0 and 21, blood after 35 days; compared to other analysed flavonoids and virosomes without adjuvant
PCSK9 antigenic peptide = assay: Immunogenicity study of PCSK9 vaccine; humoral response by ELISA; format: in vivo, mice; conditions: beta-sitosterol used along with alum; statement on Table 6
Description: The results are measured in ELISA units.
PCSK9 vaccine was prepared as described in WIPO publication WO 2011/027257. Here, ‘VR_9.5’ as decribed in WO 2011/027257 has been used as PCSK9 peptide for the current experiment. Other disclosed PCSK9 peptide can also be used as PCSK9 construct. The prepared PCSK9 construct was conjugated with diphtheria toxoid as an immunogenic carrier. The said preparation was used as an antigen preparation for further study. The conjugated PCSK9 antigen was formulated with alum and beta-sitosterol. […] Blood samples were collected at day 63 for the analysis of humoral response by ELISA. Humoral response analysed by ELISA is shown in below table. […] Table 6 provided here below for the results obtained by ELISA.

CC[C@H](CC[C@@H](C)[C@H]1CC[C@H]2[C@@H]3CC=C4C[C@@H](O)CC[C@]4(C)[C@H]3CC[C@]12C)C(C)C [beta-sitosterol]
immune response (serum titers of total IgG, IgG2a and IgG1 antibody, FIG. 1-3) [1]: higher immune response | immune response against PCSK9 antigenic peptide (PCSK9 antigenic peptide): higher immune response; also recorded: synergistic effect
